Measured values published in ChEMBL document CHEMBL1201862, “PubChem BioAssay data set” (2004).
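Exposure lasted 48 hours, with cells grown in 96-well plates and compounds tested at five concentrations. At the GI50, growth is halved.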 Active and inactive are the calls of the source. Cut-off read from the data, not from the text of the source: active = GI50 up to about 1.1 µM and inactive = higher.

Experiments:
Assay in all cases: inhibition of tumour cell growth, NCI panel, 48 h
COLO 205 = system: COLO 205
PC-3 = system: PC-3
HOP-62 = system: HOP-62
SK-MEL-2 = system: SK-MEL-2
SN12C = system: SN12C
UACC-257 = system: UACC-257
MDA-MB-231 = system: MDA-MB-231
IGROV-1 = system: IGROV-1
NCI-H226 = system: NCI-H226
OVCAR-8 = system: OVCAR-8
MDA-MB-435 = system: MDA-MB-435
HT-29 = system: HT-29
NCI-H23 = system: NCI-H23
CCRF-CEM = system: CCRF-CEM
SK-OV-3 = system: SK-OV-3
A549 = system: A549
RXF 393 = system: RXF 393
SK-MEL-5 = system: SK-MEL-5
SK-MEL-28 = system: SK-MEL-28
CAKI-1 = system: CAKI-1

Row | SMILES | GI50 (COLO 205) | GI50 (PC-3) | GI50 (HOP-62) | GI50 (SK-MEL-2) | GI50 (SN12C) | GI50 (UACC-257) | GI50 (MDA-MB-231) | GI50 (IGROV-1) | GI50 (NCI-H226) | GI50 (OVCAR-8) | GI50 (MDA-MB-435) | GI50 (HT-29) | GI50 (NCI-H23) | GI50 (CCRF-CEM) | GI50 (SK-OV-3) | GI50 (A549) | GI50 (RXF 393) | GI50 (SK-MEL-5) | GI50 (SK-MEL-28) | GI50 (CAKI-1)
1 | COC(=O)c1cc2c(cc1CC(Cc1ccc3c(c1)CCCC3)C(=O)OC)CCCC2 (stereo not given) | 33.2 µM (inactive) | 21.7 µM (inactive) | > 100 µM (inactive) | > 100 µM (inactive) | > 100 µM (inactive) | 16.4 µM (inactive) | 68.4 µM (inactive) | > 100 µM (inactive) | 59.3 µM (inactive) | 84.7 µM (inactive) | 40.6 µM (inactive) | 33.7 µM (inactive) | 54.1 µM (inactive) | 29.7 µM (inactive) | 49.5 µM (inactive) | 37.7 µM (inactive) | 25.8 µM (inactive) | 24.5 µM (inactive) | 86.1 µM (inactive) | > 100 µM (inactive)
2 | C=CCC1(C)CCCN(Cc2ccccc2)C1=O (stereo not given) | > 10 µM (inactive) | > 10 µM (inactive) | > 10 µM (inactive) | > 10 µM (inactive) | > 10 µM (inactive) | > 10 µM (inactive) | > 10 µM (inactive) | 0.863 µM (active) | > 10 µM (inactive) | > 10 µM (inactive) | > 10 µM (inactive) | > 10 µM (inactive) | > 10 µM (inactive) | > 10 µM (inactive) | > 10 µM (inactive) | > 10 µM (inactive) | > 10 µM (inactive) | 0.41 µM (active) | > 10 µM (inactive) | > 10 µM (inactive)
3 | O=S(=O)(c1ccc(Br)cc1)n1c2ccc(Br)cc2c2nc3ccccc3nc21 | > 100 µM (inactive) | > 100 µM (inactive) | 34.3 µM (inactive) | 57.5 µM (inactive) | > 100 µM (inactive) | > 100 µM (inactive) | 50.5 µM (inactive) | 78.7 µM (inactive) | > 100 µM (inactive) | 55.5 µM (inactive) | > 100 µM (inactive) | > 100 µM (inactive) | > 100 µM (inactive) | 14.1 µM (inactive) | 52 µM (inactive) | > 100 µM (inactive) | 20.1 µM (inactive) | > 100 µM (inactive) | > 100 µM (inactive) | > 100 µM (inactive)
4 | CC1CC[C@@]2(OC1)OC1C[C@H]3[C@@H]4CC[C@H]5CC(OC6OC(CO)C(OC7OC(CO)C(O)C(O)C7OC7OC(CO)C(O)C(O)C7O)C(O)C6O)CCC5(C)[C@H]4CCC3(C)C1[C@@H]2C (stereo not given in full) | 0.955 µM (active) | 0.838 µM (active) | 1.44 µM (inactive) | 2.38 µM (inactive) | 2.01 µM (inactive) | 4.31 µM (inactive) | 0.929 µM (active) | 1.04 µM (active) | 1.34 µM (inactive) | 6.24 µM (inactive) | 2.65 µM (inactive) | 0.964 µM (active) | 3.89 µM (inactive) | 1.35 µM (inactive) | 1.57 µM (inactive) | 2.1 µM (inactive) | 1.05 µM (active) | 6.89 µM (inactive) | 2.12 µM (inactive) | 3.21 µM (inactive)
5 | COC1/C=C/C(C)C(C(C)C(OC)C(C)CCC(=O)C(C)C(C/C=C/N(C)C=O)OC)OC(=O)C=CC2OC2(C)CC(OC)C(OC)C2=CC(=O)O[C@@H](C(C)C(OC)CC(OC)/C=C/C(C)C(O)C1)[C@H]2O (stereo not given in full) | 0.0016 µM (active) | 0.00609 µM (active) | 0.00497 µM (active) | 0.0175 µM (active) | 0.00593 µM (active) | 0.0105 µM (active) | 0.0032 µM (active) | 0.00106 µM (active) | 0.00615 µM (active) | 0.00853 µM (active) | 0.0137 µM (active) | 0.00364 µM (active) | 0.0239 µM (active) | 0.00935 µM (active) | 0.0205 µM (active) | 0.00349 µM (active) | 0.0139 µM (active) | 0.0128 µM (active) | 0.00869 µM (active) | 0.00267 µM (active)
6 | O=Cc1ccc(-c2ccc(-c3ccc(CO)s3)o2)s1 | 12.9 µM (inactive) | 28.3 µM (inactive) | 17.4 µM (inactive) | 35.7 µM (inactive) | 17.7 µM (inactive) | 0.364 µM (active) | 22 µM (inactive) | 0.547 µM (active) | 0.0681 µM (active) | 7.28 µM (inactive) | 8.32 µM (inactive) | 7.83 µM (inactive) | 21.9 µM (inactive) | 1.58 µM (inactive) | 19.7 µM (inactive) | 14.8 µM (inactive) | 5.74 µM (inactive) | 5.48 µM (inactive) | > 35.9 µM (inactive) | 0.186 µM (active)
7 | COc1ccn(CC(=O)c2cc3ccccc3[nH]2)c(=O)n1 | > 100 µM (inactive) | > 100 µM (inactive) | > 100 µM (inactive) | > 100 µM (inactive) | > 100 µM (inactive) | > 100 µM (inactive) | > 100 µM (inactive) | > 100 µM (inactive) | > 100 µM (inactive) | > 100 µM (inactive) | > 100 µM (inactive) | > 100 µM (inactive) | > 100 µM (inactive) | > 100 µM (inactive) | > 100 µM (inactive) | > 100 µM (inactive) | > 100 µM (inactive) | > 100 µM (inactive) | > 100 µM (inactive) | > 100 µM (inactive)
8 | Cc1c2ccccc2cc2nc3ccccc3n12 | > 10 µM (inactive) | > 10 µM (inactive) | > 10 µM (inactive) | > 10 µM (inactive) | > 10 µM (inactive) | > 10 µM (inactive) | > 10 µM (inactive) | > 10 µM (inactive) | > 10 µM (inactive) | > 10 µM (inactive) | > 10 µM (inactive) | > 10 µM (inactive) | > 10 µM (inactive) | > 10 µM (inactive) | > 10 µM (inactive) | > 10 µM (inactive) | > 10 µM (inactive) | > 10 µM (inactive) | > 10 µM (inactive) | > 10 µM (inactive)
9 | O=C(O)c1ccc(S(=O)(=O)c2ccccc2[N+](=O)[O-])cc1 | > 10 µM (inactive) | > 10 µM (inactive) | > 10 µM (inactive) | > 10 µM (inactive) | > 10 µM (inactive) | > 10 µM (inactive) | > 10 µM (inactive) | > 10 µM (inactive) | > 10 µM (inactive) | > 10 µM (inactive) | > 10 µM (inactive) | > 10 µM (inactive) | > 10 µM (inactive) | > 10 µM (inactive) | > 10 µM (inactive) | > 10 µM (inactive) | > 10 µM (inactive) | > 10 µM (inactive) | > 10 µM (inactive) | > 10 µM (inactive)
10 | COc1ccc2c(c1)CCC(CN1CCN(CCOC(c3ccc(F)cc3)c3ccc(F)cc3)CC1)=C2 | 2.14 µM (inactive) | 16.8 µM (inactive) | 33.9 µM (inactive) | 15.8 µM (inactive) | 11.1 µM (inactive) | 9.18 µM (inactive) | 14.1 µM (inactive) | 28.1 µM (inactive) | 13 µM (inactive) | 18.8 µM (inactive) | 16.8 µM (inactive) | 4.53 µM (inactive) | 14.8 µM (inactive) | 14.1 µM (inactive) | > 100 µM (inactive) | 27.5 µM (inactive) | 11.2 µM (inactive) | 5.22 µM (inactive) | 21.3 µM (inactive) | 18.9 µM (inactive)
11 | C=C(C)C1Cc2c(cc3c(c2O)c(=O)c2ccccc2n3C)O1 (stereo not given) | 5.75 µM (inactive) | 5.71 µM (inactive) | 9.12 µM (inactive) | 5.42 µM (inactive) | 2.27 µM (inactive) | 15.8 µM (inactive) | 2.2 µM (inactive) | 1.87 µM (inactive) | 2.41 µM (inactive) | 1.84 µM (inactive) | 5.78 µM (inactive) | 2.61 µM (inactive) | 2.36 µM (inactive) | 0.724 µM (active) | 4.97 µM (inactive) | 6.62 µM (inactive) | 2.75 µM (inactive) | 2.38 µM (inactive) | 10.7 µM (inactive) | 2.99 µM (inactive)
12 | O=C1Nc2c(Cl)cc(Cl)cc2/C1=N/Nc1ccccc1[N+](=O)[O-] | 92.5 µM (inactive) | 40.8 µM (inactive) | 5.47 µM (inactive) | 18.2 µM (inactive) | 85.9 µM (inactive) | > 100 µM (inactive) | 18.3 µM (inactive) | 23.8 µM (inactive) | 49 µM (inactive) | 30.3 µM (inactive) | > 100 µM (inactive) | > 100 µM (inactive) | 26.1 µM (inactive) | 46 µM (inactive) | 30.1 µM (inactive) | 69.2 µM (inactive) | 14.2 µM (inactive) | > 100 µM (inactive) | 75.7 µM (inactive) | 39.4 µM (inactive)
13 | CC1(c2nc3ccccc3[nH]2)CCC(C(N)=O)C(C)(C)O1 (stereo not given) | > 100 µM (inactive) | > 100 µM (inactive) | > 100 µM (inactive) | > 100 µM (inactive) | > 100 µM (inactive) | > 100 µM (inactive) | > 100 µM (inactive) | > 100 µM (inactive) | > 100 µM (inactive) | > 100 µM (inactive) | > 100 µM (inactive) | > 100 µM (inactive) | > 100 µM (inactive) | > 100 µM (inactive) | 55.2 µM (inactive) | > 100 µM (inactive) | > 100 µM (inactive) | > 100 µM (inactive) | > 100 µM (inactive) | > 100 µM (inactive)
14 | CCCCC/C=C\C=C1\C(=O)C=C[C@@H]1C/C=C\CCCC(=O)O | 2.96 µM (inactive) | 1.84 µM (inactive) | 2.89 µM (inactive) | 3.05 µM (inactive) | 2 µM (inactive) | 7.29 µM (inactive) | 9.2 µM (inactive) | 2.75 µM (inactive) | 7.38 µM (inactive) | 1.49 µM (inactive) | 2.42 µM (inactive) | 5.05 µM (inactive) | 7.16 µM (inactive) | 0.205 µM (active) | 7.06 µM (inactive) | 5.73 µM (inactive) | 1.94 µM (inactive) | 3.78 µM (inactive) | 6.65 µM (inactive) | 3.37 µM (inactive)
